Here are results for one compound from ChEMBL document CHEMBL5154863, “Design and synthesis of quinolinium-based derivatives targeting FtsZ for antibacterial evaluation and mechanistic study” (Eur J Med Chem, 2022).

SMILES strings stand for the structures.

Experiment [1] concerns Staphylococcus epidermidis. Kind of experiment: Antibacterial activity against Staphylococcus epidermidis ATCC 12228 assessed as inhibition of bacterial growth incubated for 20 to 24 hrs by broth micro dilution method. The format is functional. The conditions noted are these: time 20-24 hrs.
Experiment [2] concerns Staphylococcus aureus. The experiment in a line: Antibacterial activity against vancomycin-intermediate Staphylococcus aureus Mu50 assessed as inhibition of bacterial growth incubated for 20 to 24 hrs by broth micro dilution method. The format is functional. The settings on record: time 20-24 hrs.
Experiment [3] concerns the target T1, Cell division protein FtsZ (Staphylococcus aureus) (UniProt P0A031).
T1 sequence (whole entry): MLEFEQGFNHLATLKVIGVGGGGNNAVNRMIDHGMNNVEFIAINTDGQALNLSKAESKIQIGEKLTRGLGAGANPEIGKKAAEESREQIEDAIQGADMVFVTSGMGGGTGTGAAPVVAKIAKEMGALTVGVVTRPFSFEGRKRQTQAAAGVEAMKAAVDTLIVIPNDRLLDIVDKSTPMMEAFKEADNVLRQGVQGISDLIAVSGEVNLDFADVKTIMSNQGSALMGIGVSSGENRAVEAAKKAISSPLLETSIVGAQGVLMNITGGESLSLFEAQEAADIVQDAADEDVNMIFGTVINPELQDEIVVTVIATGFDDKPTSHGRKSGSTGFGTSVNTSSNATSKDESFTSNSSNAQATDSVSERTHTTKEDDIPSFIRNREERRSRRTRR
The experiment in a line: Binding affinity to Staphylococcus aureus FtsZ assessed as equilibrium binding constant by isothermal titration calorimetry. A general note: ITC needs no label: the signal is the heat of the interaction.

Experiment [4] can be described thus: Ratio of MBC for bactericidal activity against Enterococcus faecium ATCC 700221 to MIC for antibacterial activity against Enterococcus faecium ATCC 700221. The format is functional.
Another experiment concerns Pseudomonas aeruginosa. Kind of experiment: Antibacterial activity against […] Pseudomonas aeruginosa ATCC 27853 assessed as inhibition of bacterial growth incubated for 20 to 24 hrs by broth micro dilution method. The format is functional. The settings on record: time 20-24 hrs.
Another experiment deals with Enterococcus faecium. The experiment in a line: Antibacterial activity against vancomycin resistant Enterococcus faecium ATCC 700221 assessed as inhibition of bacterial growth incubated for 20 to 24 hrs by broth micro dilution method. The conditions noted are these: time 20-24 hrs. The format is functional.
The test system of experiment [5] is Staphylococcus aureus. Kind of experiment: Antibacterial activity against Staphylococcus aureus ATCC 29213 infected in L929 cells assessed as inhibition of bacterial growth incubated for 20 to 24 hrs by broth micro dilution method. The format is functional. The conditions noted are these: time 20-24 hrs.
For experiment [6], the target named is T1, Cell division protein FtsZ (Staphylococcus aureus). Kind of experiment: Induction of Staphylococcus aureus FtsZ polymerization expressed in Escherichia coli BL21 (DE3) assessed as increase in absorbance at 2 to 8 ug/ml in presence of GTP by microplate reader method. The settings on record: dose 2-8 µg/ml, DDE = dose-dependent effect.
The nature of experiment [7]: Ratio of MBC for bactericidal activity against Staphylococcus aureus ATCC 29213 to MIC for antibacterial activity against Staphylococcus aureus ATCC 29213. The format is functional.
For experiment [8], the system named is Escherichia coli. The experiment in a line: Antibacterial activity against Escherichia coli ATCC 25922 assessed as inhibition of bacterial growth incubated for 20 to 24 hrs by broth micro dilution method. The format is functional. The settings on record: time 20-24 hrs.
Experiment [9] deals with Escherichia coli. The experiment in a line: Antibacterial activity against Escherichia coli ATCC 8739 assessed as inhibition of bacterial growth incubated for 20 to 24 hrs by broth micro dilution method. The conditions noted are these: time 20-24 hrs. The format is functional.
The nature of experiment [10]: Ratio of MBC for bactericidal activity against Staphylococcus aureus ATCC 43300 to MIC for antibacterial activity against Staphylococcus aureus ATCC 43300. The format is functional.
In experiment [11] the test system is Staphylococcus aureus. Kind of experiment: Antibacterial activity against methicillin-resistant Staphylococcus aureus ATCC 33592 assessed as inhibition of bacterial growth incubated for 20 to 24 hrs by broth micro dilution method. The format is functional. The conditions noted are these: time 20-24 hrs.

The MIC is the least concentration at which growth counts as inhibited. As for `CC1CCN(c2cc(/C=C/c3ccc(N(C)C)cc3)[n+](C)c3ccccc23)CC1.[I-]`, the MIC is 0.25 µg/mL in [1]; 1 µg/mL in the experiment on Staphylococcus aureus [2]; more than 64 µg/mL in the experiment with Pseudomonas aeruginosa; 1 µg/mL in the experiment on Enterococcus faecium; 1 µg/mL in the experiment on Staphylococcus aureus [5]; 8 µg/mL with Escherichia coli [8]. The MIC in the experiment on Escherichia coli [9] stood at 64 µg/mL; in the experiment with Staphylococcus aureus [11], 0.5 µg/mL. Moreover, the Kb in experiment [3] was 4.41 10^5/M. Also, the Ratio in experiment [4] is 4; in experiment [7] it was more than 4; in experiment [10] it was more than 4. In addition, in experiment [6], the Activity result was “Dde”.
